What follows are compounds tested on IFNα-induced STAT phosphorylation (pSTAT5) in human whole blood (assay: IFNα-Induced STAT Phosphorylation in Human Whole Blood). Details: 1 h incubation with compound, 1000 U/mL recombinant human IFNα A/D for 15 min, pSTAT5 in CD3 positive population, read-out: IFNα-Induced Stat Phosph. (IC50).
Assay type: cell-based
Protocol: IFNα-Induced STAT Phosphorylation in Human Whole Blood
After an hour long incubation with compound, human whole blood (drawn with either EDTA or ACD-A as anti-coagulant) was stimulated with 1000 U/mL recombinant human IFNα A/D (R&D Systems 11200-2) for 15 min. The stimulation was stopped by adding Fix/Lyse buffer (BD 558049). Cells were stained with a CD3 FITC antibody (BD 555916), washed, and permeabilized on ice using Perm III buffer (BD 558050). Cells were then stained with an Alexa-Fluor 647 pSTAT5 (pY694) antibody (BD 612599) for 30 min prior to analysis on the FACS Canto II. The amount of pSTAT5 expression was quantitated by median fluorescence intensity after gating on the CD3 positive population.

Row | Compound | IC50 [nM]
1 | CNC(=O)c1nnc(Nc2cncc(C(F)(F)F)n2)cc1Nc1ncccc1S(C)(=O)=O [Example 127] | 302
2 | CNC(=O)c1cnc(Nc2ccc(OC(F)(F)F)cn2)cc1Nc1ncccc1S(C)(=O)=O [Example 240] | 115
3 | CNC(=O)c1nnc(Nc2ccc(C(C)(C)N)cn2)cc1Nc1ncccc1S(C)(=O)=O [Example 24] | 9
4 | CNC(=O)c1nnc(Nc2cn(C)nn2)cc1Nc1ncccc1S(C)(=O)=O [Example 53] | 132
5 | CNC(=O)c1nnc(Nc2ccn(C)n2)cc1Nc1ncccc1[S+](C)[O-] (centres unmarked) [Example 256] | 744
6 | CCOc1ccc(Nc2cc(Nc3ncccc3S(C)(=O)=O)c(C(=O)NC)nn2)nn1 [Example 83] | 76
7 | CNC(=O)c1nnc(NC(=O)CC(C)C)cc1Nc1ncccc1S(C)(=O)=O [Example 129] | 80
8 | CNC(=O)c1nnc(Nc2ccn(CC(F)F)n2)cc1Nc1ncccc1S(C)(=O)=O [Example 20] | 47
9 | CNC(=O)c1cnc(NC(=O)OC)cc1Nc1ncccc1S(C)(=O)=O [Example 237] | 1080

Continued, values first:

Row | IC50 [nM] | Compound
10 | 32 | CNC(=O)c1nnc(Nc2cc(F)ccn2)cc1Nc1ncccc1S(C)(=O)=O [Example 4]
11 | 47 | CNC(=O)c1cnc(Nc2cc(C3CC3)nc(C)n2)cc1Nc1ncccc1S(C)(=O)=O [Example 229]
12 | 13 | CCOC(=O)N1CCN(c2ccc(Nc3cc(Nc4ncccc4S(C)(=O)=O)c(C(=O)NC)nn3)nc2)CC1 [Example 107]
13 | 24 | CNC(=O)c1cnc(Nc2ccc(C(F)(F)F)cn2)cc1Nc1ncccc1S(C)(=O)=O [Example 219]
14 | 66 | CCNC(=O)Nc1cc(Nc2nc(C)ccc2S(C)(=O)=O)c(C(=O)NC)nn1 [Example 191]
15 | 43 | CNC(=O)c1nnc(Nc2ccc(C(F)(F)F)cn2)cc1Nc1ncccc1S(C)(=O)=O [Example 91]
16 | 58 | CNC(=O)c1nnc(Nc2cc(C3CC3)ccn2)cc1Nc1nc(C)ccc1S(C)(=O)=O [Example 197]
17 | 10 | CNC(=O)c1nnc(Nc2ccc(OCCOC)cn2)cc1Nc1ncccc1S(C)(=O)=O [Example 158]
18 | 57 | CNC(=O)c1nnc(Nc2cc3ccc(C(C)(C)O)cc3cn2)cc1Nc1ncccc1S(C)(=O)=O [Example 30]
19 | 52 | CNC(=O)c1cnc(Nc2ccc(Cl)cn2)cc1Nc1ncccc1S(C)(=O)=O [Example 217]
20 | 44 | CNC(=O)c1cnc(Nc2cccnn2)cc1Nc1ncccc1S(C)(=O)=O [Example 224]
21 | 46 | CNC(=O)c1nnc(Nc2ccc(-c3c(F)cccc3F)nn2)cc1Nc1ncccc1S(C)(=O)=O [Example 104]
22 | 30 | CNC(=O)c1nnc(Nc2cc(C(F)(F)F)c(C(=O)N(C)C)cn2)cc1Nc1ncccc1S(C)(=O)=O [Example 50]

Same assay, conditions: Homo sapiens, 1 h incubation with compound, 1000 U/mL recombinant human IFNα A/D for 15 min, pSTAT5 in CD3 positive population, read-out: IFNα-Induced Stat Phosph. (IC50)

Row | IC50 [nM] | Compound
23 | 636 | [2H]C([2H])([2H])NC(=O)c1cnc(Nc2ccc(-c3ccccc3)cn2)cc1Nc1ncccc1S(C)(=O)=O [Example 234, N-(methyl-d3)-4-((3-(methylsulfonyl)pyridin-2-yl)amino)-6-((5-phenylpyridin-2-yl)amino)nicotinamide]
24 | 474 | [2H]C([2H])([2H])NC(=O)c1nnc(Nc2cc(C)nc(C)n2)cc1Nc1nc(F)ccc1S(C)(=O)=O [Example 178, 6-((2,6-dimethylpyrimidin-4-yl)amino)-4-((6-fluoro-3-(methylsulfonyl)pyridin-2-yl)amino)-N-(methyl-d3)pyridazine-3-carboxamide]
25 | 114 | COc1ccc(Nc2cc(Nc3ncccc3S(C)(=O)=O)c(C(N)=O)nn2)nn1 [Example 213, 6-((6-methoxypyridazin-3-yl)amino)-4-((3-(methylsulfonyl)pyridin-2-yl)amino)pyridazine-3-carboxamide]
26 | 278 | [2H]C([2H])([2H])NC(=O)c1nnc(NC(=O)[C@H]2C[C@@H]2C(F)(F)F)cc1Nc1ncccc1S(C)(=O)=O [Example 175, N-(methyl-d3)-4-((3-(methylsulfonyl)pyridin-2-yl)amino)-6-((1S,2S)-2-(trifluoromethyl)cyclopropane-1-carboxamido)pyridazine-3-carboxamide]
